Experimental data: patent publication US11248243B2, “Process for the biological production of methacrylic acid and derivatives thereof” (MITSUBISHI CHEMICAL UK LIMITED, priority 2015, dated 2022)
Blank lines part the entries; values can stand above or below the compound they belong to.

How the values were obtained:
acyl-CoA synthetase AcsA = conditions: published value, cited from earlier work
[1] = molecular target: T1, short chain acyl-CoA oxidase (ACX4) (Arabidopsis thaliana, UniProt Q96329); test: Activity test of ACX4 cell free extract, HPLC analysis; type: biochemical; conditions: ACX4 cell free extract 0.8 mg/ml, isobutyryl-CoA 500 μM, FAD 10 μM, HEPES pH 7.5, 30° C., 30 min
T1 construct: made in house; host or cells: E. coli BL21 (DE3) pLysS pET20b(+)::ACX4, cell free extract
T1 sequence (Q96329 1-436): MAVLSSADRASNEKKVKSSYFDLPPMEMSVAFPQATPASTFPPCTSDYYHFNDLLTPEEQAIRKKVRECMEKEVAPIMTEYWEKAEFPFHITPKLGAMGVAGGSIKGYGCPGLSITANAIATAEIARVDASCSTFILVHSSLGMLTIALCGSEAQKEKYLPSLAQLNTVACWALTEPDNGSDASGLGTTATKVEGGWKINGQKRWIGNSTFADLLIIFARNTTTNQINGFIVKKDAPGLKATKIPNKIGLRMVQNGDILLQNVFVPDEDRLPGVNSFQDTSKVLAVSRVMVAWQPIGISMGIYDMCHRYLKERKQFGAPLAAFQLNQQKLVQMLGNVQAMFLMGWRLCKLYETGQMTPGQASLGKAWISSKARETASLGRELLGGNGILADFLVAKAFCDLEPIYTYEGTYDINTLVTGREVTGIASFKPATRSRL
Experimental: To prepare a cell free extract of the ACX4 enzyme, one of the cell pellets that was prepared previously was re-suspended in HEPES (50 mM, pH 7.5) buffer (6 ml) that was supplemented with flavin adenine dinucleotide (FAD) at a final concentration of 10 μM. The re-suspended cells were then lysed in a Constant Systems One Shot cell disrupter. The lysate was centrifuged at 18,000 g for 15 min at 4° C. and the supernatant of this was further centrifuged at […] for 60 min at 4° C. The supernatant was concentrated in a VivaSpin Viva6 10,000 Molecular Weight Cut-Off centrifugal concentrator, centrifuging at 10,000 g at 18° C. until a six-fold volume reduction of the retentate. […] The total protein concentration in the retentate was determined using the BioRad DC protein assay kit, using bovine serum albumin as the protein standard. […]
The activity test of ACX4 was performed in 1.5 ml micro-centrifuge tubes. […] The reaction was incubated at 30° C. in the 1.5 ml micro-centrifuge tube, with shaking at 250 rpm for 30 min and the final reaction product was analysed by analytical HPLC (FIG. 5). […]
In order to confirm that the methacrylyl-CoA peak was genuine, and that it was not an isobutyryl-CoA peak with a shifted elution time, the sample was spiked with isobutyryl-CoA and analysed by HPLC again. […]

[2] = molecular target: T2, 4-hydroxybenzoyl-CoA thioesterase (4HBT) (Arthrobacter sp, UniProt Q04416); test: Crude enzymatic assays of 4HBT cell free extract (DTNB, 412 nm); type: biochemical, Arthrobacter sp. strain SU; conditions: cell free protein extract 1 mg/ml
T2 construct: made in house; host or cells: E. coli BL21 (DE3) pLysS pET20b(+)::4HBT, cell free extract
Experimental: To prepare a cell free extract of the 4HBT enzyme, one of the cell pellets of E. coli BL21 (DE3) pLysS pET20b(+)::4HBT that was prepared previously was re-suspended in HEPES (50 mM, pH 7.5) assay buffer and lysed in a Constant Systems One Shot cell disrupter. The cell lysate was centrifuged at 18,000 g for 15 min at 4° C. and the supernatant of this was centrifuged at 57,750 g for a further 60 min at 4° C. This supernatant was washed using a VivaSpin Viva6 10,000 Molecular Weight Cut-Off centrifugal concentrator, centrifuging at 10,000 g at 18° C. until a six-fold volume reduction, followed by a six-fold re-dilution in the HEPES assay buffer and a further 6-fold volume reduction in the centrifugal concentrator. The total protein concentration of the cell free extracts from E. coli BL21 (DE3) pLysS pET20b(+)::4HBT overexpression cultures was performed using the BioRad DC assay kit, using bovine serum albumin as the protein standard. The same procedure was followed in order to prepare cell free extracts from a cell pellet of the E. coli BL21 (DE3) pLysS pET20b(+), the negative control strain.
Crude enzymatic assays of 4HBT were performed in cuvettes (1 ml) containing cell free protein extract (1 mg·ml^−1), methacrylyl-CoA (approximately 100 μM), 5′5-dithiobis-(2-nitrobenzoic) acid (DTNB) (500 μM). Reactions were started by the addition of substrate and were monitored at 412 nm. […]

T2 sequence (Q04416 whole entry): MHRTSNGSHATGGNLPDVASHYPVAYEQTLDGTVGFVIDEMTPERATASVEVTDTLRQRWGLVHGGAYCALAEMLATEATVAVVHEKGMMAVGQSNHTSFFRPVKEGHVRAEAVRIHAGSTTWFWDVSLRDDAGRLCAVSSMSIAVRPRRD

Compound: CC(C)C(=O)O [isobutyric acid]
turnover number (kcat) (acyl-CoA synthetase AcsA): 10.6 s⁻¹
Km (acyl-CoA synthetase AcsA; read-out: Michaelis constant (Km)): 140 µM

oxidation of substrate by ACX4 [1]: oxidises
Compound: CC(C)C(=O)SCCNC(=O)CCNC(=O)[C@H](O)C(C)(C)COP(=O)(O)OP(=O)(O)OC[C@H]1O[C@@H](n2cnc3c(N)ncnc32)[C@H](O)[C@@H]1OP(=O)(O)O [isobutyryl-CoA]

Compound: C=C(C)C(=O)SCCNC(=O)CCNC(=O)[C@H](O)C(C)(C)COP(=O)(O)OP(=O)(O)OC[C@H]1O[C@@H](n2cnc3c(N)ncnc32)[C@H](O)[C@@H]1OP(=O)(O)O [methacrylyl-CoA]
substrate selectivity of 4HBT ([2]; methacrylyl-CoA versus isobutyryl-CoA): selectivity for methacrylyl-CoA over isobutyryl-CoA
hydrolysis of substrate by 4HBT ([2]; substrate approximately 100 μM, DTNB 500 μM): catalysed the hydrolysis
